Source: patent publication US6875451B2, “Compositions and methods for the treatment of primary and metastatic neoplastic diseases using arsenic compounds” (PolaRx Biopharmaceuticals Inc., priority 1997, dated 2005)

Tests used:
Type in all cases: cell-based
[1] = system: SF-268; assay: SRB growth assay, 2 days exposure, CNS cancer
Protocol: (§1) Arsenic trioxide (1 mg/ml, 10 mg/ampoule, manufactured by Taylor Pharmaceuticals, Decatur, Ill.) was tested at five concentrations each at 10-fold dilutions, i.e., 10^−5, 10^−6, 10^−7, 10^−8 and 10^−9 μg/ml.
(§2) The in vitro tests were performed by incubating the test cells in the presence of the indicated concentration of arsenic trioxide under standard culture conditions for a designated period of time, which is followed by a sulforhodamine B (SRB) protein assay to estimate cell viability or growth. The cell lines are organized into subpanels according to the origin of the cell lines, e.g., leukemia, breast cancer, etc. A description of the cell lines and method of testing is described in Monk et al. (1997, Anticancer Drug Des. 12:533-41) and Weinstein et al., (1997, Science 275:343-9), which are incorporated herein in their entirety.
(§3) The measurement of an effect is expressed in Percentage Growth (PG). The measured effect of the compound on a cell line is calculated according to one or the other of the following two expressions: If (Mean ODtest−Mean ODzero)≧0. then PG=100×(Mean ODtest−Mean ODzero)/(Mean ODctrl−Mean ODzero) If (Mean ODtest−Mean ODzero)<0. then PG=100×(Mean ODtest−Mean ODzero)/(Mean ODzero where: • Mean ODzero=the average of optical density measurements of SRB-derived color just before exposure of cells to the test compounds; • Mean ODtest=the average of optical density measurements of SRB-derived color after exposure of cells to the test compound for a designated period of time; and • Mean ODctrl=the average of optical density measurements of SRB-derived color after with no exposure of cells to the test compound for a designated period of time
(§4) The first two columns describe the subpanel (e.g., leukemia) and cell line (e.g., CCRF-CEM) involved. The next two columns list the Mean ODzero and Mean ODctrl; the next five columns list the Mean ODtest for each of five different concentrations. Each concentration is expressed as the log10 (molar or μg/ml). The next five columns list the calculated PGs for each concentration. The response parameters GI50, TGI and LC50 are interpolated values representing the concentrations at which the PG is +50, 0, and −50, respectively. Sometimes these response parameters cannot be obtained by interpolation. If, for instance, all of the PGs in a given row exceed +50, then none of the three parameters can be obtained by interpolation. In such a case, the value given for each response parameter is the highest concentration tested and is preceded by a “>” sign. This practice is extended similarly to the other possible situations where a response parameter cannot be obtained by interpolation.
(§5) In the first set, the cells from 56 different cancer cell lines were exposed to five concentrations of arsenic trioxide continuously for two days prior to performing the SRB assay. In the second set, the cells from 50 different cell lines (a subset of the first 56 cell lines, plus the renal cancer cell line 786-0) were exposed continuously for six days prior to the SRB assay.

[2] = system: SF-295; assay: SRB growth assay, 2 days exposure, CNS cancer
Protocol: as §1, §2, §3, §4, §5

[3] = system: SF-539; assay: SRB growth assay, 2 days exposure, CNS cancer
Protocol: as §1, §2, §3, §4, §5

[4] = system: SNB-19; assay: SRB growth assay, 2 days exposure, CNS cancer
Protocol: as §1, §2, §3, §4, §5

[5] = system: SNB-75; assay: SRB growth assay, 2 days exposure, CNS cancer
Protocol: as §1, §2, §3, §4, §5

[6] = system: U251; assay: SRB growth assay, 2 days exposure, CNS cancer
Protocol: as §1, §2, §3, §4, §5

[7] = system: LOX IMVI; assay: SRB growth assay, 2 days exposure, melanoma
Protocol: as §1, §2, §3, §4, §5

[8] = system: SK-MEL-2; assay: SRB growth assay, 2 days exposure, melanoma
Protocol: as §1, §2, §3, §4, §5

[9] = system: UACC-257; assay: SRB growth assay, 2 days exposure, melanoma
Protocol: as §1, §2, §3, §4, §5

[10] = system: HOP-92; assay: SRB growth assay, 6 days exposure, non-small cell lung cancer; conditions: HOP-92, 6 days
Protocol: as §1, §2, §3, §4, §5

[11] = system: NCI-H226; assay: as above; conditions: NCI-H226, 6 days
Protocol: as §1, §2, §3, §4, §5

[12] = system: NCI-H322M; assay: as above
Protocol: as §1, §2, §3, §4, §5

[13] = read-out: LC50 (the source's name)

Substance: arsenic trioxide
- TGI [1]: >0.0126 ng/mL
- Percent Growth ([1]; log10 conc −4.9): 23%
- Percent Growth ([1]; log10 conc −5.9): 100%
- Percent Growth ([1]; log10 conc −6.9): 108%
- Percent Growth ([1]; log10 conc −7.9): 94%
- Percent Growth ([1]; log10 conc −8.9): 110%
- TGI [2]: >0.0126 ng/mL
- Percent Growth ([2]; log10 conc −4.9): 51%
- Percent Growth ([2]; log10 conc −5.9): 91%
- Percent Growth ([2]; log10 conc −6.9): 91%
- Percent Growth ([2]; log10 conc −7.9): 96%
- Percent Growth ([2]; log10 conc −8.9): 93%
- TGI [3]: 0.00885 ng/mL
- Percent Growth ([3]; log10 conc −4.9): −17%
- Percent Growth ([3]; log10 conc −5.9): 92%
- Percent Growth ([3]; log10 conc −6.9): 113%
- Percent Growth ([3]; log10 conc −7.9): 117%
- Percent Growth ([3]; log10 conc −8.9): 109%
- TGI [4]: >0.0126 ng/mL
- Percent Growth ([4]; log10 conc −4.9): 36%
- Percent Growth ([4]; log10 conc −5.9): 97%
- Percent Growth ([4]; log10 conc −6.9): 98%
- Percent Growth ([4]; log10 conc −7.9): 97%
- Percent Growth ([4]; log10 conc −8.9): 93%
- TGI [5]: 0.00698 ng/mL
- Percent Growth ([5]; log10 conc −4.9): −17%
- Percent Growth ([5]; log10 conc −5.9): 37%
- Percent Growth ([5]; log10 conc −6.9): 115%
- Percent Growth ([5]; log10 conc −7.9): 100%
- Percent Growth ([5]; log10 conc −8.9): 77%
- TGI [6]: 0.00437 ng/mL
- Percent Growth ([6]; log10 conc −4.9): −68%
- Percent Growth ([6]; log10 conc −5.9): 80%
- Percent Growth ([6]; log10 conc −6.9): 101%
- Percent Growth ([6]; log10 conc −7.9): 99%
- Percent Growth ([6]; log10 conc −8.9): 98%
- TGI [7]: >0.0126 ng/mL
- Percent Growth ([7]; log10 conc −4.9): 13%
- Percent Growth ([7]; log10 conc −5.9): 73%
- Percent Growth ([7]; log10 conc −6.9): 71%
- Percent Growth ([7]; log10 conc −7.9): 88%
- Percent Growth ([7]; log10 conc −8.9): 89%
- TGI [8]: 0.00881 ng/mL
- Percent Growth ([8]; log10 conc −4.9): −17%
- Percent Growth ([8]; log10 conc −5.9): 91%
- Percent Growth ([8]; log10 conc −6.9): 110%
- Percent Growth ([8]; log10 conc −7.9): 103%
- Percent Growth ([8]; log10 conc −8.9): 113%
- TGI [9]: >0.0126 ng/mL
- Percent Growth ([9]; log10 conc −4.9): 40%
- Percent Growth ([9]; log10 conc −5.9): 88%
- Percent Growth ([9]; log10 conc −6.9): 104%
- Percent Growth ([9]; log10 conc −7.9): 97%
- Percent Growth ([9]; log10 conc −8.9): 101%
- Mean Optical Densities ([10]; Log 10 Concentration −4.9): 0.079
- Percent Growth ([10]; Log 10 Concentration −4.9): −31%
- Mean Optical Densities ([10]; Log 10 Concentration −5.9): 1.229
- Percent Growth ([10]; Log 10 Concentration −5.9): 95%
- Mean Optical Densities ([10]; Log 10 Concentration −6.9): 1.319
- Percent Growth ([10]; Log 10 Concentration −6.9): 102%
- Mean Optical Densities ([10]; Log 10 Concentration −7.9): 1.834
- Percent Growth ([10]; Log 10 Concentration −7.9): 146%
- Mean Optical Densities ([10]; Log 10 Concentration −8.9): 1.455
- Percent Growth ([10]; Log 10 Concentration −8.9): 114%
- CC50 [10, 13]: > 12.6 µM
- Mean Optical Densities ([11]; Log 10 Concentration −4.9): 0.164
- Percent Growth ([11]; Log 10 Concentration −4.9): 17%
- Mean Optical Densities ([11]; Log 10 Concentration −5.9): 0.348
- Percent Growth ([11]; Log 10 Concentration −5.9): 63%
- Mean Optical Densities ([11]; Log 10 Concentration −6.9): 0.489
- Percent Growth ([11]; Log 10 Concentration −6.9): 98%
- Mean Optical Densities ([11]; Log 10 Concentration −7.9): 0.458
- Percent Growth ([11]; Log 10 Concentration −7.9): 90%
- Mean Optical Densities ([11]; Log 10 Concentration −8.9): 0.504
- Percent Growth ([11]; Log 10 Concentration −8.9): 101%
- CC50 [11, 13]: > 12.6 µM
- Mean Optical Densities ([12]; Log 10 Concentration −4.9): 0.054
- Percent Growth ([12]; Log 10 Concentration −4.9): 3%
- Mean Optical Densities ([12]; Log 10 Concentration −5.9): 0.552
- Percent Growth ([12]; Log 10 Concentration −5.9): 77%
- Mean Optical Densities ([12]; Log 10 Concentration −6.9): 0.674
- Percent Growth ([12]; Log 10 Concentration −6.9): 96%
- Mean Optical Densities ([12]; Log 10 Concentration −7.9): 0.620
- Percent Growth ([12]; Log 10 Concentration −7.9): 88%
- Mean Optical Densities ([12]; Log 10 Concentration −8.9): 0.680
- Percent Growth ([12]; Log 10 Concentration −8.9): 97%
- CC50 [12, 13]: > 12.6 µM
